Series [1] deals with cognitive flexibility. The series can be described thus: Operant set-shifting test against PCP. Type of series: in vivo, male Wistar rats. The procedure:
This assay serves as a model of impaired executive function associated with neuropsychiatric disorders like schizophrenia. The aim of this study was to evaluate COMPOUND C to reverse deficits observed with PCP on cognitive flexibility using the operant set-shifting test in the rat.
Substances & Formulation.
Doses were prepared by separate weighing (W/V). COMPOUND C formulations were prepared fresh on each dosing day and dosing was completed within 8 hours of formulation. Phencyclidine (PCP) hydrochloride, white powder, was dissolved in physiological saline by magnetic stirring, fresh each day of dosing.
Test System. 78 male Wistar rats were supplied for this study. • 72 rats, 8-9 weeks old, weighing 218-299 g at the beginning of the visual discrimination were submitted to the entire behavioral testing and assigned to match groups based on their performance during the second visual discrimination session. • 6 spare rats were submitted to lever pressing, side bias and visual discrimination but were discarded for the testing period (set-shift and reversal)
The experimental protocol which detects effects on behavioral flexibility follows that described by Floresco et al. (Behav. Brain Res., 190, 85-96 (2008)).
Apparatus. The apparatus consists of standard Med Associates ENV-008 Skinner boxes (30×25×30 cm) fitted with a house light, two retractable levers and a food pellet dispenser. The levers are located on either side of the food receptacle connected to the pellet dispenser. A light emitting diode stimulus light is positioned centrally above each lever and served as a stimulus for visual-cue discrimination learning.
Acquisition of lever-pressing (training). The aim of this phase was to train animals to lever-press to receive a food pellet reward.
Side bias. On the last day of training, the side bias for the rat was determined. The session was similar to the lever pressing session except that both levers were inserted into the chamber together (i.e. 90 levers presentations every 20 seconds). Again, the stimulus lights above each of the levers were not illuminated during this training session. On the first levers presentation, a food pellet was delivered after responding on either lever. Upon subsequent insertion of the levers, food was delivered only if the rat responded on the lever opposite to the one chosen initially. If the rat chose the same lever to the initial choice, no food was delivered. This continued until the rat chose the lever opposite to the one chosen initially. After choosing both levers, a new trial commenced. Thus, one trial for the side bias procedure consisted of responded on both levers. The sessions terminated after 90 levers presentations or after completion of 21 trials.
Visual-cue discrimination learning. After determining the side bias, animals were submitted to visual-cue discrimination learning.
A session began with both levers retracted and the chamber in darkness (the inter-trial state). Every 20 seconds, a trial began with illumination of one of the stimulus lights above one of the levers. 3 seconds later, the house light was illuminated, and both levers were inserted into the chamber. […] After food delivery, the house light remained on for another 4 seconds, after which the chamber returned to the inter-trial state. If the rat responded on the other lever (incorrect response), both levers retracted immediately without food delivery and the chamber reverted to the inter-trial state.

Series [2] can be described thus: in vivo. Conditions: beagle, dog, plasma, po, 80 mg/kg.
Series [3] has as its system prepulse inhibition. The experiment in a line: Prepulse inhibition (PPI) of the auditory startle response, apomorphine-impairment model.
Series [4] is described as follows: Stability in rat gut microbiota (fecal matter). The series is classed as in vitro ADME. Conditions: pH 6 and pH 7.4, 0.5 mM. The procedure: Stability in Rat and Human Gut Microbiota. Rat fecal material was obtained and weighed. One capsule of the raw probiotics was crushed and weighed prior to use. The weighed samples were then solubilized in PBS at pH 6.0 and 7.4 to extract microorganisms. The samples were centrifuged at 18,000×g for 10 min to remove particulates and the supernatant was used to evaluate test article stability. An aliquot (50 μL) of the COMPOUND A stock solution was added to the fecal extract (final concentration 0.5 mM) and allowed to incubate at 37° C. Aliquots were collected at 0, 15, 30, 60, and 120 min and analyzed by LC/MS/MS to determine stability of the parent molecule. The collected sample was quenched in acetonitrile/0.1% formic acid mixture.

Series [5] concerns amidase. The experiment in a line: Stability in the presence of amidase and amidase inhibitors in PBS. The series is classed as biochemical. The note with it: amidase 50 units in PBS. The procedure:
Stability of COMPOUND A in the Presence of Amidase in Pure System. […] Test article (COMPOUND A) stock solution was prepared in 100% DMSO at a concentration of 10 mM. An aliquot (50 μL) of test article stock solution was added to 950 μL of PBS with and without amidase (50 units) in 1.5 mL tubes, and the mixture was vortexed and incubated at 37° C. with 5% CO2 for 120 min. Samples (50 μL) were taken at 0, 15, 30, 60, and 120 min after being vortexed. Samples were quenched in 150 μL acetonitrile/0.1% formic acid solution and briefly vortexed then immediately frozen at −80° C. Stability was determined by measuring loss of parent compound using LC/MS/MS methods. Each exposure condition and time point were done in triplicate.
Stability of COMPOUND A in the Presence of Amidase and Amidase Inhibitors in a Phosphate-buffered Saline (PBS). To confirm inhibition of the amidase, individual inhibitors were added to PBS with amidase (50 units). A solution without amidase and without inhibitors was also tested as a control. The individual inhibitors tested were Chloroacetone at 200 μM and MAFP at 40 nM. Amidase solution was prepared as described above and inhibitors were added to the solutions to the intended concentrations. […] Stability was determined by measuring loss of parent compound using LC/MS/MS methods. […]

For series [6], the system named is recognition memory. The experiment in a line: Spontaneous novel object recognition (NOR), 48 hr retention interval. Type of series: in vivo, male Wistar rats. The note with it: 48 hr delay.
Setting [7] is: COMPOUND C 60 mg/kg PO + apomorphine.
[8] abbreviates: COMPOUND C 90 mg/kg PO + apomorphine.
Where [9] appears, read: COMPOUND C 120 mg/kg PO + apomorphine.

Broadly, the AUC(0-inf) is total exposure, with the tail of the curve extrapolated. Broadly, the AUC(0-t) is the area under the concentration-time curve up to a stated or last time point. A low value points to low exposure. As a reminder, the Cmax is the highest concentration seen after dosing. The MRT inf is a mean duration of stay, worked out from the concentration-time curve. As usually defined, the MRT last is the average time that molecules of a dose stay in the body. The term Tmax denotes the time at which the peak concentration occurs. One may read the half-life as the time needed for the level to fall by half in the phase considered.

Regarding `CCOc1ccccc1OC[C@@H]1CN(C(=O)OC(OC(=O)[C@H](N)C(C)C)C(C)C)CCO1` (stereo partly drawn) [COMPOUND C], in series [1] (COMPOUND C 120 mg/kg p.o. + PCP, first set-shift session), the “number of omissions, post-hoc Dunnett” value is recorded as “significant effects at the dose of 120 mg/kg”. Further, the “number of perseverative errors vs PCP controls” value in series [1] (COMPOUND C 40, 80, 120 and 160 mg/kg p.o. + PCP) is on record as “did not significantly affect”. Besides, in series [1] (COMPOUND C 40, 80, 120 and 160 mg/kg p.o. + PCP, first set-shift and first reversal sessions), the “number of trials to reach the criterion vs PCP controls” value is “did not significantly affect the number of trials to reach the criterion”. The “omissions vs PCP-treated rats” value in series [1] (COMPOUND C 40-160 mg/kg p.o. + PCP) was “increased omissions”. In series [2] (female), this molecule yielded an area under the curve AUC(0-inf) of 591 ng·h/mL, an AUC(0-t) of 572 ng·h/mL, a maximum concentration (Cmax) of 308 ng/mL and an MRT inf of 4.78 h. Also, in series [2] (female), the MRT last stood at 3.16 h, the Tmax turned out to be 0.5 h and the half-life was 4.73 h. For the same molecule, in series [2] (male), the AUC(0-inf) was found to be 1200 ng·h/mL, the AUC(0-t) was determined as 1190 ng·h/mL, the concentration peaked (Cmax) at 775 ng/mL and the MRT inf worked out at 2.8 h. In series [2] (male), the MRT last was 2.58 h, the Tmax is 0.5 h and the half-life is 2.94 h. Further, in series [3] (setting [7]), the “% PPI (mean ± SEM)” value came to 43.6 ± 5.0% and the “Acoustic Startle (AU) (mean ± SEM)” value is 1719.1 ± 211.2 AU. In addition, in series [3] (setting [8]), the “% PPI (mean ± SEM)” value was 37.2 ± 5.6% and the “Acoustic Startle (AU) (mean ± SEM)” value is on record as 1579.9 ± 171.1 AU. Moreover, in series [3] (setting [9]), the “% PPI (mean ± SEM)” value worked out at 43.7 ± 3.7% and the “Acoustic Startle (AU) (mean ± SEM)” value is given as 1856.8 ± 245.8 AU. For the same molecule, the “attenuation of the effects of apomorphine on PPI” value in series [3] (COMPOUND C 60, 90, 120 mg/kg PO) is on record as “None of the doses of COMPOUND C were associated with a statistically significant attenuation”.

As for `CCOc1ccccc1OC[C@@H]1CN(C(=O)OC(C)OC(=O)[C@@H](N)C(C)C)CCO1` (stereo partly drawn) [COMPOUND A], in series [4], the “stability in rat fecal matter” value is recorded as “time-dependent decrease in the amount of parent compound”. For the same molecule, in series [5], the “role of amidase in degradation” value is “amidase activity played an important role”. Also, the “preference for the novel object (exploration times)” value in series [6] (COMPOUND A 15 mg/kg p.o.) was “non-significant trend toward a preference for the novel object”; in series [6] (COMPOUND A 30, 60, and 90 mg/kg p.o.) it was “significant (p<0.05) preference for the novel object”. Further, the “d2 ratios vs vehicle-control” value in series [6] (COMPOUND A 60 and 90 mg/kg p.o.) is on record as “significant difference (p<0.05) from the vehicle-control response”.

Values taken from patent publication US20240343699A1, “DERIVATIVES OF SUBSTITUTED MORPHOLINES AND USES THEREOF” (Supernus Pharmaceuticals, Inc., priority 2023, published 2024).
